# In paper PMC6256002 (British Journal of Clinical Pharmacology, 2018):
# Where two headings read alike, the source gives them in different places. Marks after values point to notes of the source that are not given here.
# Legend:
# JAK1 = conditions: in human whole blood; cited from earlier work
# [1] = cited from earlier work
# [2] = for Ae0–24 h (amount excreted in the urine over 24 h) / AUC(0-t) / CL renal / half-life: arithmetic mean (CV%); for AUC(0-t): AUC0–24 h; for CL renal: CLR (renal clearance); for half-life: t½,λz (apparent terminal half-life)
# [3] = Effect of renal impairment; conditions: for Ae0–24 h (amount excreted in the urine over 24 h) / AUC(0-t) / CL renal / tmax / half-life: 100 mg QD; for Ae0–24 h (amount excreted in the urine over 24 h) / AUC(0-t) / CL renal / half-life: arithmetic mean (CV%); for AUC(0-t) / CL renal / tmax / half-life: both, human, in vivo, 100 mg; for AUC(0-t): AUC0–24 h; for CL renal: CLR (renal clearance); for tmax: median (min–max); for half-life: t½,λz (apparent terminal half-life)
# [4] = filgotinib 100 mg QD for 10 days
# [5] = both, human, in vivo, 100 mg, 100 mg QD, day 10, age 40–50 years
# [6] = both, human, in vivo, 100 mg, 100 mg QD, day 10, age 65–74 years
# [7] = both, human, in vivo, 100 mg, 100 mg QD, day 10, age ≥75 years
structure (smiles),measurement,setting,value
O=C(Nc1nc2cccc(-c3ccc(CN4CCS(=O)(=O)CC4)cc3)n2n1)C1CC1 [Filgotinib],Selectivity for JAK1 over JAK2,JAK1,30 times
same,Impact of food on bioavailability,[1],no impact
same,Fraction excreted in the urine,"[1]; in humans, filgotinib unchanged, metabolite as such, no reference given",< 10%
same,Eliminated in urine (filgotinib and its metabolites),[1]; no reference given,> 80%
same,Ae0–24 h (amount excreted in the urine over 24 h),"[2]; 100 mg QD, day 10, age 40–50 years",8.01 (26.5) ^b % dose
same,Ae0–24 h (amount excreted in the urine over 24 h),"[2]; 100 mg QD, day 10, age 40–50 years, listed as filgotinib",8.01 % dose
same,Ae0–24 h (amount excreted in the urine over 24 h),"[2]; 100 mg QD, day 10, age 65–74 years",6.55 (14.3) ^c % dose
same,Ae0–24 h (amount excreted in the urine over 24 h),"[2]; 100 mg QD, day 10, age 65–74 years, listed as filgotinib",6.55 % dose
same,tmax,"[2]; 100 mg QD, day 10, age 65–74 years, median (min–max)",2.0 (0.5–3.0) h
same,Ae0–24 h (amount excreted in the urine over 24 h),"[2]; 100 mg QD, day 10, age ≥75 years",7.24 (16.9) ^b % dose
same,Ae0–24 h (amount excreted in the urine over 24 h),"[2]; 100 mg QD, day 10, age ≥75 years, listed as filgotinib",7.24 % dose
same,tmax,"[2]; 100 mg QD, day 10, age ≥75 years, median (min–max)",2.0 (0.5–3.0) h
same,tmax,"[2]; both, human, in vivo, 100 mg",2 h
same,AUC(0-t),[2]; [5],1600 ng·h/mL
same,AUC(0-t),[2]; [6],1790 ng·h/mL
same,AUC(0-t),[2]; [7],2220 ng·h/mL
same,CL renal,[2]; [5],92.5 mL/min
same,CL renal,[2]; [6],65 mL/min
same,CL renal,[2]; [7],55.5 mL/min
same,half-life,[2]; [5],364 min
same,half-life,[2]; [6],350 min
same,half-life,[2]; [7],414 min
same,Time to steady state,"[2]; predose (trough) concentrations, regardless of the age group",steady state by the second dosing day
same,Fold-change in steady-state AUC0–24 h,"[2]; ≥75 years relative to 40–50 years, point estimate [90% CI]",1.40 fold
same,Ae0–24 h (amount excreted in the urine over 24 h),"[3]; day 10, mild RI",5.37 (42.1) % dose
same,Ae0–24 h (amount excreted in the urine over 24 h),"[3]; day 10, moderate RI",4.34 (51.2) % dose
same,Ae0–24 h (amount excreted in the urine over 24 h),"[3]; day 10, normal renal function",7.61 (35.4) % dose
same,Ae0–24 h (amount excreted in the urine over 24 h),"[3]; day 10, severe RI",2.08 (34) % dose
same,Steady state in plasma reached by,[3]; all renal function groups,≤ 2 days
same,AUC(0-t),"[3]; day 10, mild RI",1890 ng·h/mL
same,AUC(0-t),"[3]; day 10, moderate RI",2690 ng·h/mL
same,AUC(0-t),"[3]; day 10, normal renal function",1820 ng·h/mL
same,AUC(0-t),"[3]; day 10, severe RI",2640 ng·h/mL
same,CL renal,"[3]; day 10, mild RI",49.2 mL/min
same,CL renal,"[3]; day 10, moderate RI",31.5 mL/min
same,CL renal,"[3]; day 10, normal renal function",74.2 mL/min
same,CL renal,"[3]; day 10, severe RI",15 mL/min
same,tmax,"[3]; day 10, moderate RI",36 min
same,tmax,"[3]; day 10, normal renal function",48 min
same,half-life,"[3]; day 10, moderate RI",636 min
same,half-life,"[3]; day 10, normal renal function",325 min
same,half-life,"[3]; day 10, severe RI",542 min
same,Time after dosing at which Cmax was reached,[3]; day 10,1 h
same,CLR lower (drop) compared with subjects with normal renal function,[3]; severe RI vs normal renal function,80%
same,Safety and tolerability,[4],generally safe and well tolerated
